Values of other authors in patent publication US20230000960A1, “NEOANTIGEN COMPOSITIONS AND USES THEREOF” (BIONTECH US INC., priority 2019, published 2023).

Test system: ovarian carcinoma patients
Settings: poly-ICLC in combination with a NYESO-1 peptide vaccine (in addition to Montanide); phase 1 study

poly-ICLC
patients showing induction of CD4+ and CD8+ T cell, as well as antibody responses to the peptide: > 90%
